Assay results reported in PMC6983093, “Ketoprofen-Based Ionic Liquids: Synthesis and Interactions with Bovine Serum Albumin” (Molecules, 2019).
Values joined by “and” are separate entries in the source; they are usually repeats but may differ in a detail not shown here. Equal entries are not always repeated.

Tests used:
[1] = target: T1, bovine serum albumin (BSA) (Bos taurus, UniProt P02769); test: BSA fluorescence quenching (Stern–Volmer and double-log analysis); assay type: binding; details: 25 °C; for bimolecular quenching rate constant kq: pH 7.4, τo taken as 10^−8 s; for Binding constant KA / Stern–Volmer quenching constant Ksv: sodium phosphate buffer pH 7.4, 50 mM; for Stern–Volmer quenching constant Ksv: BSA 2 μM, λex 280 nm
T1 construct: Bovine serum albumin (BSA), heat shock fraction, protease-free, fatty acid-free, essentially globulin free (pH 7, ≥98%); purchased Merck (Darmstadt, Germany)
Method: The fluorescence quenching data are analyzed according to the Stern–Volmer Equation (1):(1) Fo/F=1+kqτqo[Q]=1+Ksv[Q], where Fo and F is the fluorescence peak intensities in the absence and in the presence of quencher.
The maximum scatter quenching constant Kq that is due to collisions between biomolecules is 2 × 10^10 L mol^−1 s^−1 [33].
The dependence of log(Fo−F/F) vs. log[Q] is linear with a slope equal to the number of the binding sites, and y-intercept corresponds to the log of the effective binding constant (KA).
All fluorescence measurements were carried out on Perkin Elmer LS 55 fluorimeter equipped with a 1.0 cm quartz cuvette.
(§1) BSA-ILs incubated 1 hour prior to the measurements.

[2] = target: T1, bovine serum albumin (BSA); test: ATR-FTIR analysis of the Amide I band of BSA-compound complexes (secondary structure); details: for α-Helices, Relative Area of Amide I band component: BSA 0.3 mM : compound 1:1, phosphate buffer pH 7.4, 50 mM, native BSA 47.3; for Unordered Structures, Relative Area of Amide I band component: '-' = no band, native BSA 21
Method: In the spectra of proteins, the Amide I band region (1700–1600 cm^−1) is mainly due to the starching vibrations of the carbonyl group (80%) and is highly sensitive to the changes in the geometry and the environment of the amide bonds. […] The band assignments were done according to Jackson and Mantsch and the analysis of the structure was taken into consideration the data on the BSA available in the literature.
The spectra of the proteins were referenced to the respective spectra of 50 mM sodium phosphate buffer, pH 7.4 containing the same amount of the corresponding IL.
Then the ATR-FTIR spectra were Fourier deconvoluted by Opus software version 5.5 using a bandwidth of 12 cm^−1, 2.9 resolution enhancement factor, and Lorentzian lineshape. Second derivative spectra were obtained using the Savitzky-Golay algorithm based on 17 smoothing points. Then, the relative contribution of each band component of the Amide I band was determined by curve fitting following the procedure of the OPUS program. In the fitting, the number of components and the initial values of their position were set as determined from the second derivative spectra. The initial bandwidth of all components was set to 12 cm^−1 and the components were approximated by mixed Lorentzian/Gaussian functions. The curve-fitting was performed according to the Local Least Squares algorithm. The assignment of the Amide I band positions to the secondary structure was done according to [36].

[3] = target: T1, bovine serum albumin (BSA); test: Steady-state FRET between BSA fluorophores and compound; assay type: binding; details: [BSA] = [Quencher] = 2 μM; T = 25 °C
Text: The following equations are used to estimate the steady-state FRET parameters:(3) E=1−F/Fo=Ro^6/Ro^6+ro^6, (4) Ro^6=8.8x10^−25K^2n^−4ϕJ, (5) J=∑F(λ)ε(λ)λ^4Δλ/∑F(λ)Δλ, where E is energy transfer efficacy, Ro is the characteristic distance called Förster distance or critical distance at which the energy transfer efficacy is 50%, ro is the distance between the quencher (drug) and the BSA fluorophores. […] F(λ) is the fluorescence intensity of the fluorescence of the donor, ε(λ) (L mol^−1 cm^−1) is the molar absorption coefficient of the acceptor at wavelength λ.
as §1

cytochrome C oxidase = system: cytochrome C oxidase; design: method as in doi:10.1016/j.molliq.2017.02.027; details: cited from earlier work; for IC50: read-out: IC50 for the inhibition of cytochrome C oxidase
[4] = Thermogravimetric analysis (thermal stability, TG); details: heating 10 °C min^−1, air atmosphere
[5] = BSA:compound 1:1, pH 7.4, one value per band, in the order of the band positions of the column to the left

T1 sequence (P02769 25-607): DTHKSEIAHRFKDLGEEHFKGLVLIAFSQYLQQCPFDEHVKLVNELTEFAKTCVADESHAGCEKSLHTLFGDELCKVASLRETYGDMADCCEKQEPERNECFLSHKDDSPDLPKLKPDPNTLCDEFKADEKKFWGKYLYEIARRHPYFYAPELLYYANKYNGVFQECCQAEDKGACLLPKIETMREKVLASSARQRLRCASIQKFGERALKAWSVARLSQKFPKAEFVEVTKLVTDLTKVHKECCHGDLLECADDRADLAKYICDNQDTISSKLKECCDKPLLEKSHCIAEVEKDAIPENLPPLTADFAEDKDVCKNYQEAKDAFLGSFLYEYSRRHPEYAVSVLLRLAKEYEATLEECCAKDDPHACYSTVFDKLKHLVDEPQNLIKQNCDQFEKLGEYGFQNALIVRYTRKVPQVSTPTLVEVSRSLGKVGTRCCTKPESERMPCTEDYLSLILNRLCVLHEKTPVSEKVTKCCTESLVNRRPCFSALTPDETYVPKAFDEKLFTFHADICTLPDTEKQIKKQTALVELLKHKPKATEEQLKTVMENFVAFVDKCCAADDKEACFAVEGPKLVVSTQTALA

| Compound | bimolecular quenching rate constant kq [1] | Binding constant KA [1] | Stern–Volmer quenching constant Ksv [1] | α-Helices, Relative Area of Amide I band component [2] [%] | Effect on the secondary structure of BSA (in words) ([2]; BSA:compound 1:1, pH 7.4) | Unordered Structures, Relative Area of Amide I band component ([2]; BSA:compound 1:1, pH 7.4) [%] | β-Structures, Relative Area of Amide I band components [2, 5] | EFRET (energy transfer efficacy) [3] | Ro (Förster critical distance) [3] [nm] | ro (distance between quencher and BSA fluorophores) [3] [nm] | Toxicity relative to the parent sodium salt (cytochrome C oxidase) | IC50 (cytochrome C oxidase) [mM] | Tonset (onset of the thermal degradation) [4] [°C] | Aromatic Residues/Aggregated Strands/Antiparallel β-Sheets, Relative Area of Amide I band components [2, 5] [%] |
| --- | --- | --- | --- | --- | --- | --- | --- | --- | --- | --- | --- | --- | --- | --- |
| L-Leucine Ethyl Ester Ketoprofenate [[L-LeuOEt][KETO]] | 8.3 10^12, L mol^−1 s^−1 | 7.1 10^5, L mol^−1 | 8.3 10^4, L mol^−1 | 36.7 | very close to the native BSA conformation | 21.5 | 13.5% and 13.7% | 0.0246 | 3.30 | 6.14 |  |  |  |  |
| L-Valine Isopropyl Ester Ketoprofenate [[L-ValOiPr][KETO]] | 7.1 10^12, L mol^−1 s^−1 | 1.5 10^5, L mol^−1 | 7.1 10^4, L mol^−1 | 23.8 | most dramatic changes in the secondary structure | 11.7 |  | 0.0625 | 3.38 | 5.42 |  |  |  |  |
| COc1ccc2cc(C(C)C(=O)[O-])ccc2c1.C[N+](C)(C)CCO (stereo not shown) [cholinium naproxenate] |  |  |  |  |  |  |  |  |  |  | more toxic than its parent sodium salt |  |  |  |
| CC(C(=O)O)c1cccc(C(=O)c2ccccc2)c1 (stereo not shown) [cholinium ketoprofenate] |  |  |  |  |  |  |  |  |  |  |  | ~21.3 |  |  |
| L-Valine Propyl Ester Ketoprofenate [[L-ValOPr][KETO]] | 7.1 10^12, L mol^−1 s^−1 | 2.3 10^5, L mol^−1 | 7.1 10^4, L mol^−1 | 26.9 |  | 29.2 |  | 0.1770 | 3.46 | 4.74 |  |  | 52.3 | 11.0 |
| L-Valine Butyl Ester Ketoprofenate [[L-ValOBu][KETO]] | 7.3 10^12, L mol^−1 s^−1 | 7.5 10^5, L mol^−1 | 7.3 10^4, L mol^−1 | 27.8 |  |  |  | 0.0520 | 3.32 | 5.48 |  |  | 101.1 |  |
| L-Valine Ethyl Ester Ketoprofenate [[L-ValOEt][KETO]] | 6.3 10^12, L mol^−1 s^−1 | 8.2 10^5, L mol^−1 | 6.3 10^4, L mol^−1 | 28.8 |  | 17.25 |  | 0.1830 | 3.43 | 4.68 |  |  | 100.4 |  |
| CC(C(=O)O)c1cccc(C(=O)c2ccccc2)c1 (stereo not shown) [sodium ketoprofenate] |  |  |  |  |  |  |  |  |  |  |  | ~0.0006 |  |  |
